Measurements taken from patent US11168074B2, “Potassium channel inhibitors” (ACESION PHARMA ApS, priority 2017, dated 2021).

Each molecule was assayed against T1, human SK3 channel (hKCa2.3) (Homo sapiens, UniProt Q9UGI6) (assay: Automated patch clamping (QPatch 16 HT whole cell patch-clamp)). Details: HEK-293 cells stably expressing hKCa2.3; free calcium 400 nM; effects normalized to N-methyl bicuculline; read-out: IC50 in the Automated patch clamping assay (concentration needed to inhibit half of the SK channel activity).
T1 construct: expressed in transfected cells
Format: cell-based
Method: Automated whole cell patch-clamp recordings were performed using a QPatch 16 HT system and single-hole Qplates (Biolin Scientific, Sophion, Denmark) on HEK-293 cells stably expressing the human SK3 channel (hKCa2.3). Cells were cultured and prepared for experiments using normal cell culturing procedures. A total of 4-5 million cells were used per experiment. The Qpatch automatically generates giga sealing, whole-cell formation, compound application and recording of current. hKCa2.3 currents were recorded in symmetrical K^+ solutions, with an intracellular solution consisting of in mM: KCl 108; KOH/EGTA (ethylene glycol-bis(2-aminoethylether)-N,N,N′,N′-tetraacetic acid) 31.25/10; CaCl2 8.1; MgCl2 1.2; HEPES (2-[4-(2-hydroxyethyl)piperazin-1-yl]ethanesulfonic acid) 10; KOH 15, pH adjusted to pH=7.2 with HCl. The free calcium concentration was calculated to 400 nM. The extracellular solution consisted of in mM: KCl 150; CaCl2 0.1; MgCl2 3; HEPES 10; Glucose 10, pH=7.4 with KOH. The cells were held at 0 mV and hKCa2.3 currents were elicited by a linear voltage ramp from −80 mV to +80 mV (200 ms in duration) applied every 5th second. The compound application protocol consisted of 12 recording periods lasting from 50-200 s: 1) Baseline recordings in extracellular solution; 2) Application of the positive control N-methyl bicuculline (100 μM), which is characterized by full efficacy, fast on- and off-rate; 3-4) Wash-out; 5-9) Increasing concentrations of test compound to establish an IC50 value; 10-11) Wash-out; 12) positive control with compound NS8593 (N-[(1R)-1,2,3,4-tetrahydro-1-naphthalenyl]-1H-benzimidazol-2-amine) (1 μM). Data were sampled at 10 kHz, 4th order Bessel filter, cut-off frequency 3 kHz. Currents were compensated for run-down. Potency was quantified as the concentration needed to inhibit half of the SK channel activity and reported as an IC50 value. All effects of compounds of the present invention as tested were normalized to the observed inhibitory effect of N-methyl bicuculline.
`CCC(=O)NCC(Nc1nc2ccccc2[nH]1)c1cccc(C(F)(F)F)c1` (single isomer, unassigned) [Example 10a, N-{2-[(1H-1,3-benzodiazol-2-yl)amino]-2-[3-(trifluoromethyl)phenyl]ethyl}propanamide] was tested, and the IC50 was < 10 µM. With `CC(=O)NCCC(Nc1nc2ccccc2[nH]1)c1cccc(C(F)(F)F)c1` (single isomer, unassigned; (-)) [Example 14a, (−)-N-{3-[(1H-1,3-benzodiazol-2-yl)amino]-3-[3-(trifluoromethyl)phenyl]propyl}acetamide] the IC50 was < 10 µM. `CC(=O)N(C)CCC(Nc1nc2ccccc2[nH]1)c1cccc(C(F)(F)F)c1` (single isomer, unassigned; (-)) [Example 18a, (−)-N-{3-[(1H-1,3-benzodiazol-2-yl)amino]-3-[3-(trifluoromethyl)phenyl]propyl}-N-methylacetamide] was tested, and the IC50 was < 10 µM. For `CC(=O)NCCCC(Nc1nc2ccccc2[nH]1)c1cccc(C(F)(F)F)c1` (single isomer, unassigned; (-)) [Example 19a, (−)-N-{4-[(1H-1,3-benzodiazol-2-yl)amino]-4-[3-(trifluoromethyl)phenyl]butyl}acetamide], the IC50 was < 10 µM. With `CC(=O)NCCC(Nc1nc2ccccc2[nH]1)c1cccc(OC(F)(F)F)c1` (single isomer, unassigned; (-)) [Example 22a, (−)-N-{3-[(1H-1,3-benzodiazol-2-yl)amino]-3-[3-(trifluoromethoxy)phenyl]propyl}acetamide] the IC50 was < 10 µM. With `O=C(NCC(Nc1nc2ccccc2[nH]1)c1cccc(C(F)(F)F)c1)c1ccon1` (stereo not drawn) [Example 1, N-{2-[(1H-1,3-benzodiazol-2-yl)amino]-2-[3-(trifluoromethyl)phenyl]ethyl}-1,2-oxazole-3-carboxamide] the IC50 was < 10 µM. With `O=C(NCC(Nc1nc2ccccc2[nH]1)c1cccc(C(F)(F)F)c1)C1CCC1` (stereo not drawn) [Example 2, N-{2-[(1H-1,3-benzodiazol-2-yl)amino]-2-[3-(trifluoromethyl)phenyl]ethyl}cyclobutanecarboxamide] the IC50 was < 10 µM. `O=C(NCC(Nc1nc2ccccc2[nH]1)c1cccc(C(F)(F)F)c1)C1CC1` (stereo not drawn) [Example 3, N-{2-[(1H-1,3-benzodiazol-2-yl)amino]-2-[3-(trifluoromethyl)phenyl]ethyl}cyclopropanecarboxamide] was tested, and the IC50 was < 10 µM. For `O=C(NCC(Nc1nc2ccccc2[nH]1)c1cccc(C(F)(F)F)c1)c1ncon1` (stereo not drawn) [Example 4, N-{2-[(1H-1,3-benzodiazol-2-yl)amino]-2-[3-(trifluoromethyl)phenyl]ethyl}-1,2,4-oxadiazole-3-carboxamide; trifluoroacetic acid], the IC50 was < 10 µM. With `O=C(NCC(Nc1nc2ccccc2[nH]1)c1cccc(C(F)(F)F)c1)c1ccncn1` (stereo not drawn) [Example 5, N-{2-[(1H-1,3-benzodiazol-2-yl)amino]-2-[3-(trifluoromethyl)phenyl]ethyl}pyrimidine-4-carboxamide; trifluoroacetic acid] the IC50 was < 10 µM. With `O=C(NCC(Nc1nc2ccccc2[nH]1)c1cccc(C(F)(F)F)c1)c1ccccn1` (stereo not drawn) [Example 6, N-{2-[(1H-1,3-benzodiazol-2-yl)amino]-2-[3-(trifluoromethyl)phenyl]ethyl}pyridine-2-carboxamide; trifluoroacetic acid] the IC50 was < 10 µM. For `N#Cc1cccc(C(=O)NCC(Nc2nc3ccccc3[nH]2)c2cccc(C(F)(F)F)c2)c1` (stereo not drawn) [Example 7, N-{2-[(1H-1,3-benzodiazol-2-yl)amino]-2-[3-(trifluoromethyl)phenyl]ethyl}-3-cyanobenzamide], the IC50 was < 10 µM. In the case of `O=C(NCC(Nc1nc2ccccc2[nH]1)c1cccc(C(F)(F)F)c1)C1CCOCC1` (stereo not drawn) [Example 8, N-{2-[(1H-1,3-benzodiazol-2-yl)amino]-2-[3-(trifluoromethyl)phenyl]ethyl}oxane-4-carboxamide], the IC50 is reported as < 10 µM. For `O=C(NCC(Nc1nc2ccccc2[nH]1)c1cccc(C(F)(F)F)c1)c1cccc(F)c1` (stereo not drawn) [Example 9, N-{2-[(1H-1,3-benzodiazol-2-yl)amino]-2-[3-(trifluoromethyl)phenyl]ethyl}-3-fluorobenzamide], the IC50 was < 10 µM. `CCC(=O)NCC(Nc1nc2ccccc2[nH]1)c1cccc(C(F)(F)F)c1` (stereo not drawn) [Example 10, N-{2-[(1H-1,3-benzodiazol-2-yl)amino]-2-[3-(trifluoromethyl)phenyl]ethyl}propanamide] was tested, and the IC50 was < 10 µM. In the case of `O=C1CCCN1CC(Nc1nc2ccccc2[nH]1)c1cccc(C(F)(F)F)c1` (stereo not drawn) [Example 11, 1-{2-[(1H-1,3-benzodiazol-2-yl)amino]-2-[3-(trifluoromethyl)phenyl]ethyl}pyrrolidin-2-one], the IC50 is reported as < 10 µM. With `COCC(=O)NC[C@H](Nc1nc2ccccc2[nH]1)c1cccc(C(F)(F)F)c1` [Example 12, N-[(2R)-2-[(1H-1,3-benzodiazol-2-yl)amino]-2-[3-(trifluoromethyl)phenyl]ethyl]-2-methoxyacetamide] the IC50 was < 10 µM. For `O=C(CO)NC[C@H](Nc1nc2ccccc2[nH]1)c1cccc(C(F)(F)F)c1` [Example 13, N-[(2R)-2-[(1H-1,3-benzodiazol-2-yl)amino]-2-[3-(trifluoromethyl)phenyl]ethyl]-2-hydroxyacetamide], the IC50 was < 10 µM. With `CC(=O)NCCC(Nc1nc2ccccc2[nH]1)c1cccc(C(F)(F)F)c1` (stereo not drawn) [Example 14, N-{3-[(1H-1,3-benzodiazol-2-yl)amino]-3-[3-(trifluoromethyl)phenyl]propyl}acetamide] the IC50 was < 10 µM. For `O=C(NCCC(Nc1nc2c(CO)cccc2[nH]1)c1cccc(C(F)(F)F)c1)c1ccon1` (stereo not drawn) [Example 15, N-(3-{[4-(hydroxymethyl)-1H-1,3-benzodiazol-2-yl]amino}-3-[3-(trifluoromethyl)phenyl]propyl)-1,2-oxazole-3-carboxamide], the IC50 was < 10 µM. In the case of `O=C(NCCC(Nc1nc2ccccc2[nH]1)c1cccc(C(F)(F)F)c1)C(F)(F)F` (stereo not drawn) [Example 16, N-{3-[(1H-1,3-benzodiazol-2-yl)amino]-3-[3-(trifluoromethyl)phenyl]propyl}-2,2,2-trifluoroacetamide; formic acid], the IC50 is reported as < 10 µM. For `CC(=O)NC(C)CC(Nc1nc2ccccc2[nH]1)c1cccc(C(F)(F)F)c1` (stereo not drawn) [Example 17, N-{4-[(1H-1,3-benzodiazol-2-yl)amino]-4-[3-(trifluoromethyl)phenyl]butan-2-yl}acetamide; trifluoroacetic acid], the IC50 was < 10 µM. For `CC(=O)N(C)CCC(Nc1nc2ccccc2[nH]1)c1cccc(C(F)(F)F)c1` (stereo not drawn) [Example 18, N-{3-[(1H-1,3-benzodiazol-2-yl)amino]-3-[3-(trifluoromethyl)phenyl]propyl}-N-methylacetamide], the IC50 was < 10 µM. `CC(=O)NCCCC(Nc1nc2ccccc2[nH]1)c1cccc(C(F)(F)F)c1` (stereo not drawn) [Example 19, N-{4-[(1H-1,3-benzodiazol-2-yl)amino]-4-[3-(trifluoromethyl)phenyl]butyl}acetamide] was tested, and the IC50 was < 10 µM. `CC(=O)NCCCC(Nc1nc2cc(F)ccc2[nH]1)c1cccc(C(F)(F)F)c1` (stereo not drawn) [Example 20, N-{4-[(5-fluoro-1H-1,3-benzodiazol-2-yl)amino]-4-[3-(trifluoromethyl)phenyl]butyl}acetamide] was tested, and the IC50 was < 10 µM. For `CC(=O)NCCC(C)(Nc1nc2ccccc2[nH]1)c1cccc(C(F)(F)F)c1` (stereo not drawn) [Example 21, N-{3-[(1H-1,3-benzodiazol-2-yl)amino]-3-[3-(trifluoromethyl)phenyl]butyl}acetamide], the IC50 was < 10 µM. In the case of `CC(=O)NCCC(Nc1nc2ccccc2[nH]1)c1cccc(OC(F)(F)F)c1` (stereo not drawn) [Example 22, N-{3-[(1H-1,3-benzodiazol-2-yl)amino]-3-[3-(trifluoromethoxy)phenyl]propyl}acetamide], the IC50 is reported as < 10 µM.
